# Where “and” joins values, the source holds several entries; their conditions need not be identical. Identical values can stand only once. Like-named read-outs stand apart in the source and are kept apart here.
# How the values were obtained:
# nitrilase = format: biochemical
# TNT reducing enzyme = format: biochemical
# [1] = tested on: purified TNT-reducing agent
# [2] = not given; remark: listed apart in the source
# [3] = not given; remark: listed apart in the source
compound,measurement,setting,value
trypsin,effect on activity of the nitrilase,nitrilase,inhibited
same,effect on TNT-reducing activity,TNT reducing enzyme,no inhibition
"ClC(Br)C(Cl)Br (stereo not drawn) [1,2-Dibromo-1,2-dichloroethane]",Rate Constant k,pH 7.2,5.44E-03 min - 1 and 4.54E-03 min - 1
O=[N+]([O-])c1ccccc1 [nitrobenzene],Half-life,[1],28 h
same,t1/2,[2]; bar-h sediment,0.35 h
same,t1/2,[2]; beaver dam sediment,2.37 h
same,t1/2,[2]; hickory hill sediment,2.37 h
same,t1/2,[2]; memorial park sediment,2 h
same,"kcorr, calculated maximum rate assuming a 10% analytical method error",[3]; pH 2.5,0.25 ± 0.025 10^4 m^-1
same,"kcorr, calculated maximum rate assuming a 10% analytical method error",[3]; pH 3.85,0.12 ± 0.012 10^4 m^-1
same,kcorr,[3]; pH 5.3,4.6 ± 0.24 10^4 m^-1
same,"kobs, observed first-order disappearance rate constant and standard deviation",[3]; pH 5.3,4.0 ± 0.21 10^-4 m^-1
same,kcorr,[3]; pH 7,4.2 ± 0.20 10^4 m^-1
same,"kobs, observed first-order disappearance rate constant and standard deviation",[3]; pH 7,3.8 ± 0.18 10^-4 m^-1
same,kcorr,[3]; pH 7.75,8.5 ± 0.77 10^4 m^-1
same,"kobs, observed first-order disappearance rate constant and standard deviation",[3]; pH 7.75,7.7 ± 0.70 10^-4 m^-1
same,kcorr,[3]; pH 9.15,9.3 ± 0.62 10^4 m^-1
same,"kobs, observed first-order disappearance rate constant and standard deviation",[3]; pH 9.15,8.6 ± 0.57 10^-4 m^-1
same,kcorr,[3]; pH 10.55,7.8 ± 1.2 10^4 m^-1
same,"kobs, observed first-order disappearance rate constant and standard deviation",[3]; pH 10.55,6.6 ± 1.0 10^-4 m^-1
chymotrypsin,effect on activity of the nitrilase,nitrilase,inhibited
same,effect on TNT-reducing activity,TNT reducing enzyme,no inhibition
"BrCCBr [1,2-Dibromoethane]",Rate Constant k,pH 7.2,7.13E-04 min - 1
same,Half life,"vechten pond sediment, pH 7.2",16.2 h
"ClC(Cl)(Cl)C(Cl)(Cl)Cl [HCA, hexachloroethane]",Half life,"breukelveen sediment, pH 7.6",0.5 h
same,Half life,"dommel sediment, 0.0732 µM, pH 7.5",1.5 h
same,Half life,"loosdrechtse plassen sediment, 0.0732 µM, pH 7.7",9.5 h
same,Rate Constant k,pH 7.2,2.33E-03 min - 1
same,Rate Constant k,pH 7.5,7.62E-03 min - 1
same,Rate Constant k,pH 7.6,2.47E-02 min - 1
same,Rate Constant k,pH 7.7,1.22E-03 min - 1
same,Half life,"vechten pond sediment, pH 7.2",5.0 h
same,Half-life,purified dehalogenase; 30 µM,3.33 h
"ClC(Cl)=C(Cl)Cl [PCE, tetrachloroethene]",Rate Constant k,pH 7.2,4.05E-05 min - 1
same,Half life,"vechten pond sediment, pH 7.2",285.5 h
same,Half-life,purified dehalogenase; 60 µM,3.33 h
same,Half-life,purified dehalogenase; 100 µM,10 h
Ic1ccccc1 [Iodobenzene],Rate Constant k,pH 7.2,2.55E-05 min - 1
same,Half life,"vechten pond sediment, pH 7.2",453.0 h
"ClC=C(Cl)Cl [TCE, trichloroethene]",Half-life,purified dehalogenase; 60 µM,3.33 h
IC(I)=C(I)I [Tetraiodoethene],Rate Constant k,pH 7.2,9.22E-02 min - 1
same,Half life,"vechten pond sediment, pH 7.2",0.1 h
"BrC(Br)=C(Br)Br [PBE, tetrabromoethene]",Half-life,purified dehalogenase; 30 µM,18.33 h
ClC(Cl)(Cl)Cl [Carbontetrachloride],Half life,"breukelveen sediment, pH 7.6",10.0 h
same,Rate Constant k,pH 7.6,1.16E-03 min - 1

# Source: patent US5711020A (priority 1996, dated 1998)
